The record followed here is patent publication US5486525A, “Platelet activating factor antagonists: imidazopyridine indoles” (priority 1994, dated 1996).

T1 sequence (G1TEI7 1-342): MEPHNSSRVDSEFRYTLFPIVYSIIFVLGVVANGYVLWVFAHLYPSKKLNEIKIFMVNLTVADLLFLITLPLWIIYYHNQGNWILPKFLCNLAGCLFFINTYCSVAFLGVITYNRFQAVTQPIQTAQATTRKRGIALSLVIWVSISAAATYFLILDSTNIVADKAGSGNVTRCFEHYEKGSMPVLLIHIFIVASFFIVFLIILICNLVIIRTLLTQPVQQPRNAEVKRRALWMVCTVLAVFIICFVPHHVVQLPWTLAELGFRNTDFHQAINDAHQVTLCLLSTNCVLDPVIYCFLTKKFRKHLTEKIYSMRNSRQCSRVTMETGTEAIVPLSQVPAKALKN

One assay concerns the target T1, PAF receptor (Oryctolagus cuniculus, UniProt G1TEI7).
T1 construct: platelet membranes were prepared by centrifugation and washing; tissue Pel-Freez (Rogers, AR); host or cells: rabbit blood platelets (membranes prepared from citrated whole rabbit blood)
Kind of assay: PAF receptor binding assay: inhibition of specific [^3 H]C18 -PAF binding to rabbit platelet membranes.
Conditions: not given
`C#Cc1cccc2c1c(C(=O)c1ccc(Cn3c(C)nc4cnccc43)cc1)cn2C(=O)N(C)C` [Example 107, 1-N,N-Dimethylcarbamoyl-4-ethynyl-3-{4-[(1H-2-methylimidazo[4.5-c]pyrid-1-yl)methyl]benzoyl}indole]: the Ki (usually a measure of affinity in units of concentration, obtained from inhibition or displacement) was determined as 0.6 nM. On to `Cc1nc2ncccc2n1Cc1ccc(C(=O)c2cn(C(=O)N(C)C)c3ccccc23)cc1` [Example 28, 1-N,N-Dimethylcarbamoyl-3-{4-[(1H-2-methylimidazo[4.5-b]pyrid-1-yl)methyl]benzoyl}indole], for which the Ki came out at 87 nM. Still for that read-out and setting: as for `Cc1nc2cnccc2n1-c1ccc(C(=O)c2cn(C(=O)N(C)C)c3cc(-c4ccc(F)cc4)ccc23)cc1` [Example 10, 1-N,N-Dimethylcarbamoyl-6-(4-fluorophenyl)-3-[4-(1H-2-methylimidazo[4.5-c]pyrid-1-yl)benzoyl]indole], the figure is 258 nM. On the same count and under the same terms, for `CCc1nc2cnccc2n1Cc1ccc(C(=O)c2cn(C(=O)N(C)C)c3ccccc23)cc1` [Example 33] the value was 29 nM. In the case of `Cc1nc2cnccc2n1Cc1ccc(C(=O)c2cn(C(=O)N(C)C)c3cccc(C(=O)N(C)C)c23)cc1` [Example 112, 1,4-di-N,N-Dimethylcarbamoyl-3-{4-[(1H-2-methylimidazo[4.5-c]pyrid-1-yl)methyl]benzoyl}indole], the affinity corresponds to a Ki of 150 nM.

`Cc1nc2cnccc2n1Cc1ccc(C(=O)c2cn(C(=O)N(C)C)c3cccc(Br)c23)cc1` [Example 102, 1-N,N-Dimethylcarbamoyl-4-bromo-3-{4-[(1H-2-methylimidazo[4.5-c]pyrid-1-yl)methyl]benzoyl}indole]: the Ki came to 10 nM. The same measure, in the same setting: as for `Cc1nc2cnccc2n1Cc1cccc(C(=O)c2cn(C(=O)N(C)C)c3ccccc23)c1` [Example 18, 1-N,N-Dimethylcarbamoyl-3-{3-[(1H-2-methylimidazo[4.5-c]pyrid-1-yl)methyl]benzoyl}indole], the figure is 323 nM. Still for that read-out and setting: as for `Cc1nc2cnccc2n1Cc1ccc(C(=O)c2cn(C(=O)N(C)C)c3ccccc23)cc1` [Example 14, 1-N,N-Dimethylcarbamoyl-3-{4-[(1H-2-methylimidazo[4.5-c]pyrid-1-yl)methyl]benzoyl}indole], the figure is 5 nM. Consider `Cc1nc2cnccc2n1CC(=O)c1cn(C(=O)N(C)C)c2cc(-c3ccc(F)cc3)ccc12` [Example 24, 1-N,N-Dimethylcarbamoyl-6-(4-fluorophenyl)-3-[(1H-2-methylimidazo[4.5-c]pyrid-1-yl)methylcarbonyl]indole], for which the inhibition (usually the change of the read-out against control, counted positive when it falls) at 1 µM was 6%. On to `Cc1cccc2c1c(C(=O)c1ccc(Cn3c(C)nc4cnccc43)cc1)cn2C(=O)N(C)C` [Example 122, 1-N,N-Dimethylcarbamoyl-4-methyl-3-(4-[(1H-2-methylimidazo[4.5-c]pyrid-1-yl)methyl]benzoyl}indole], for which the affinity corresponds to a Ki of 0.8 nM. `Cc1nc2ccccc2n1Cc1ccc(C(=O)c2cn(C(=O)N(C)C)c3cc(-c4ccc(F)cc4)ccc23)cc1` [Example 2, 1-N,N-Dimethylcarbamoyl-6-(4-fluorophenyl)-3-{4-[(1H-2-methylbenzimidazolyl)methyl]benzoyl}indole] yielded a Ki of 56 nM. `Cc1nc2ccncc2n1CC(=O)c1cn(C(=O)N(C)C)c2cc(-c3ccc(F)cc3)ccc12` [Example 23, 1-N,N-Dimethylcarbamoyl-6-(4-fluorophenyl)-3-[(3H-2-methylimidazo[4.5-c]pyrid-3-yl)methylcarbonyl]indole] gave an inhibition at 1 µM of 7%. In the case of `COC(=O)c1cccc2c1c(C(=O)c1ccc(C(C)n3c(C)nc4cnccc43)cc1)cn2C(=O)N(C)C` (stereo not drawn) [Example 156, 1-N,N-Dimethylcarbamoyl-4-methoxycarbonyl-3-{4-[1-(1H-2-methylimidazo[4.5-c]pyrid-1-yl)eth-1-yl]benzoyl}indole], the Ki turned out to be 19 nM. On the same count and under the same terms, as for `Cc1nc2cnccc2n1-c1ccc(C(=O)c2cn(C(=O)N(C)C)c3ccccc23)cc1` [Example 22, 1-N,N-Dimethylcarbamoyl-3-{4-[(1H-2-methylimidazo[4.5-c]pyrid-1-yl)]benzoyl}indole], the figure is 146 nM; as for `Cc1nc2cnccc2n1Cc1cccc(C(=O)c2cn(C(=O)N(C)C)c3cc(-c4ccc(F)cc4)ccc23)c1` [Example 12, 1-N,N-Dimethylcarbamoyl-6-(4-fluorophenyl)-3-{3-[(1H-2-methylimidazo[4.5-c]pyrid-1-yl)methyl]benzoyl}indole], 140 nM; as for `CN(C)C(=O)n1cc(C(=O)c2ccc(Cn3cnc4cnccc43)cc2)c2ccccc21` [Example 30], 342 nM. The same measure, in the same setting: for `CN(C)C(=O)n1cc(C(=O)c2ccc(Cn3c(C(F)(F)F)nc4cnccc43)cc2)c2ccccc21` [Example 29] the value was 494 nM; for `CC(C)c1nc2cnccc2n1Cc1ccc(C(=O)c2cn(C(=O)N(C)C)c3ccccc23)cc1` [Example 31], 44 nM.

Compound `Cc1nc2cnccc2n1Cc1ccc(C(=O)c2cn(C(=O)N(C)C)c3cc(-c4ccc(F)cc4)ccc23)cc1` [Example 4, 1-N,N-Dimethylcarbamoyl-6-(4-fluorophenyl)-3-{4-[(1H-2-methylimidazo[4.5-c]pyrid-1-yl)methyl]benzoyl}indole] displayed a Ki of 2.3 nM. On the same count and under the same terms, as for `Cc1nc2cccnc2n1Cc1ccc(C(=O)c2cn(C(=O)N(C)C)c3ccccc23)cc1` [Example 27, 1-N,N-Dimethylcarbamoyl-3-{4-[(3H-2-methylimidazo[4.5-b]pyrid-3-yl)methyl]benzoyl}indole], the figure is 160 nM. Same read-out and setting: for `COC(=O)c1cccc2c1c(C(=O)c1ccc(Cn3c(C)nc4cnccc43)c(F)c1)cn2C(=O)N(C)C` [Example 96, 1-N,N-Dimethylcarbamoyl-4-methoxycarbonyl-3-{3-fluoro-4-[(1H-2-methylimidazo[4,5-c]pyrid-1-yl)methyl]benzoyl}indole] the value was 7.7 nM. The compound `Cc1nc2ccncc2n1Cc1cccc(C(=O)c2cn(C(=O)N(C)C)c3ccccc23)c1` [Example 20, 1-N,N-Dimethylcarbamoyl-3-{3-[(3H-2-methylimidazo[4.5-c]pyrid-3-yl)methyl]benzoyl}indole] gave an inhibition at 100 µM of 26%.

Regarding `CCc1cccc2c1c(C(=O)c1ccc(Cn3c(C)nc4cnccc43)cc1)cn2C(=O)N(C)C` [Example 143], affinity was put at a Ki of 0.9 nM. Regarding `COC(=O)c1cccc2c1c(C(=O)c1ccc(Cn3c(C)nc4cc(Cl)c(Cl)cc43)cc1)cn2C(=O)N(C)C` [Example 167, 1-N,N-Dimethylcarbamoyl-4-methoxycarbonyl-3-{4-[(1H-2-methyl-5,6-dichlorobenzimidazolyl)methyl]benzoyl}indole], affinity was put at a Ki of 450 nM.

Compound `COC(=O)c1cccc2c1c(C(=O)c1ccc(Cn3c(C(F)(F)F)nc4ccccc43)cc1)cn2C(=O)N(C)C` [Example 162, 1-N,N-Dimethylcarbamoyl-4-methoxycarbonyl-3-{4-[(1H-2-(trifluoromethyl)benzimidazolyl)methyl]benzoyl}indole] had a Ki of 14 nM.

The same assay, now with this note: Table 1; rabbit platelet membranes, 0.6 nM [^3 H]C18 -PAF, 60 minutes at room temperature; Ki by Cheng and Prusoff.
In the case of `COC(=O)c1cccc2c1c(C(=O)c1ccc(Cn3c(C)nc4c(Cl)nccc43)cc1)cn2C(=O)N(C)C` [Example 174, 1-N,N-Dimethylcarbamoyl-4-methoxycarbonyl-3-{4-[(4-chloro-1H-2-methylimidazo[4.5-c]pyrid-1-yl)methyl]benzoyl}indole], affinity was put at a Ki of 4 nM.

Staying with this assay, now noted: Table 1; rabbit platelet membranes, 0.6 nM [^3 H]C18 -PAF, 60 minutes at room temperature; Ki by Cheng and Prusoff; read-out: Ki.
On to `Cc1nc2ccncc2n1Cc1ccc(C(=O)c2c[nH]c3cc(-c4ccc(F)cc4)ccc23)cc1` [Example 6, 6-(4-Fluorophenyl)-3-{4-[(3H-2-methylimidazo[4.5-c]pyrid-3-yl)methyl]benzoyl}indole], for which the Ki amounted to 140 nM.

`Cc1nc2cnccc2n1Cc1cccc(C(=O)c2c[nH]c3ccccc23)c1` [Example 17, 3-{3-[(1H-2-Methylimidazo[4.5-c]pyrid-1-yl)methyl]benzoyl}indole]: the Ki was found to be 422 nM. Still for that read-out and setting: as for `COC(=O)c1ccc(C(=O)OC)c2c(C(=O)c3ccc(Cn4c(C)nc5cnccc54)cc3)c[nH]c12` [Example 90, 4,7-Dimethoxycarbonyl-3-{4-[(1H-2-methylimidazo[4,5-c]pyrid-1-yl)methyl]benzoyl}indole], the figure is 2.9 nM.

`Cc1nc2ccncc2n1Cc1cccc(C(=O)c2c[nH]c3ccccc23)c1` [Example 19, 3-{3-[(3H-2-Methylimidazo[4.5-c]pyrid-3-yl)methyl]benzoyl}indole]: the Ki worked out at 280 nM. The same measure, in the same setting: as for `Cc1nc2cnccc2n1CCCN(C)CC(=O)c1cn(C(=O)N(C)C)c2cc(-c3ccc(F)cc3)ccc12` [Example 95, 6-(4-Fluorophenyl)-3-{N-[3-(1H-2-methylimidazo[4.5-c]pyrid-1-yl)propyl]sarcosyl}indole-1-carboxylic acid dimethyl amide], the figure is 130 nM; as for `COC(=O)c1cccc2c1c(C(=O)CCCCCn1c(C)nc3cnccc31)cn2C(=O)N(C)C` [Example 126], 62 nM. For `Cc1nc2cnccc2n1Cc1ccc(C(=O)c2c[nH]c3cc(-c4ccc(F)cc4)ccc23)cc1` [Example 3, 6-(4-Fluorophenyl)-3-{4-[(1H-2-methylimidazo[4.5-c]pyrid-1-yl)methyl]benzoyl}indole], the Ki was determined as 75 nM.

As to `Cc1nc2cnccc2n1-c1ccc(C(=O)c2c[nH]c3cc(-c4ccc(F)cc4)ccc23)cc1` [Example 9, 6-(4-Fluorophenyl)-3-[4-(1H-2-methylimidazo[4.5-c]pyrid-1-yl)benzoyl]indole], the Ki was found to be 60 nM. Still for that read-out and setting: for `Cc1nc2cnccc2n1Cc1cccc(C(=O)c2c[nH]c3cc(-c4ccc(F)cc4)ccc23)c1` [Example 11, 6-(4-Fluorophenyl)-3-{3-[(1H-2-methylimidazo[4.5-c]pyrid-1-yl)methyl]benzoyl}indole] the value was 86 nM. Still for that read-out and setting: as for `COC(=O)c1cccc2c1c(S(=O)(=O)c1ccc(Cn3c(C)nc4cnccc43)cc1)cn2C(=O)N(C)C` [Example 141, 1-N,N-Dimethylcarbamoyl-4-methoxycarbonyl-3-{4-[(1H-2-methylimidazo[4.5-c]pyrid-1-yl)methyl]phenylsulfonyl}indole], the figure is 20 nM.
